Like-named read-outs stand apart in the source and are kept apart here.
Legend:
[1] = single 180‐mg oral dose of [14C]‐brigatinib, healthy volunteers; cited from earlier work
ALK = conditions: in vitro; cited from earlier work
[2] = format: in vivo, human; conditions: for CL/F, geometric mean (% CV) / CL/F, mean (SD) / AUC / Cmax: healthy subjects
[3] = format: in vivo, human; conditions: for CL/F, geometric mean (% CV) / CL/F, mean (SD) / AUC / Cmax: healthy subjects; remark: listed apart in the source
[4] = Rifampin DDI arm: single-dose brigatinib plasma PK with and without rifampin; format: in vivo, human; conditions: for half-life / Cmax / AUC: human, plasma
healthy subjects = assay: Safety and tolerability; format: in vivo, human
[5] = system: crizotinib‐naive patients with ALK‐positive NSCLC; conditions: cited from earlier work
[6] = cited from earlier work
[7] = healthy volunteers, cited from earlier work
CYP1A2 = conditions: human liver microsomes, clinically relevant concentrations; ref data on file; cited from earlier work
CYP2B6 = conditions: human liver microsomes, clinically relevant concentrations; ref data on file; cited from earlier work
CYP2C8 = conditions: human liver microsomes, clinically relevant concentrations; ref data on file; cited from earlier work
CYP2C9 = conditions: human liver microsomes, clinically relevant concentrations; ref data on file; cited from earlier work
CYP2C19 = conditions: human liver microsomes, clinically relevant concentrations; ref data on file; cited from earlier work
CYP2D6 = conditions: human liver microsomes, clinically relevant concentrations; ref data on file; cited from earlier work
CYP3A4/5 = conditions: human liver microsomes, clinically relevant concentrations; ref data on file; cited from earlier work
CYP3A expression = conditions: human hepatocytes, clinically relevant concentrations, via activation of the pregnane X receptor; cited from earlier work
[8] = brigatinib 90 mg + gemfibrozil vs brigatinib alone
[9] = brigatinib + gemfibrozil compared with brigatinib alone
[10] = single 90 mg oral brigatinib + gemfibrozil 600 mg BID (test), n = 19
[11] = single 90 mg oral brigatinib alone (reference), n = 19
[12] = human, plasma, po, 90 mg, AUC0‐120, geometric mean (% CV), single 90 mg oral brigatinib alone (reference), n = 20
[13] = human, plasma, po, 90 mg, AUC0‐120, mean (SD), single 90 mg oral brigatinib alone (reference), n = 20
[14] = human, plasma, po, 90 mg, geometric mean (% CV), single 90 mg oral brigatinib alone (reference), n = 20
[15] = brigatinib 90 mg + itraconazole vs brigatinib alone
[16] = brigatinib + itraconazole compared with brigatinib alone
[17] = single 90 mg oral brigatinib + itraconazole 200 mg BID (test), n = 11
[18] = single 90 mg oral brigatinib alone (reference), n = 20
[19] = brigatinib 180 mg + rifampin vs brigatinib alone
[20] = brigatinib + rifampin compared with brigatinib alone
[21] = healthy subjects, single 180 mg oral brigatinib + rifampin 600 mg QD (test), n = 19
[22] = healthy subjects, single 180 mg oral brigatinib alone (reference), n = 20
[23] = brigatinib coadministered with gemfibrozil

COc1cc(N2CCC(N3CCNCC3)CC2)ccc1Nc1ncc(Cl)c(Nc2ccccc2P(C)(C)=O)n1 [N‐desmethyl brigatinib]
share of circulating radioactive components [1]: 3.5%
ALK inhibition potency, fold lower than brigatinib (ALK): approximately 3 fold

COc1cc(N2CCC(N3CCN(C)CC3)CC2)ccc1Nc1ncc(Cl)c(Nc2ccccc2P(C)(C)=O)n1 [brigatinib, Brigatinib]
AUC0‐120, geometric LS mean ratio (90%CI) (test vs reference) [2, 8]: 0.85 (0.80‐0.91)
CL/F, geometric LS mean ratio (90%CI) (test vs reference) [2, 8]: 1.13 (1.06‐1.20)
reduction in peak concentrations [2, 9]: approximately 40%
reduction of geometric mean AUC0‐inf [2, 9]: 12%
CL/F, geometric mean (% CV) [2, 10]: 15.7 (25.7) L/h
CL/F, mean (SD) [2, 10]: 16.2 (4.3) L/h
CL/F, geometric mean (% CV) [2, 11]: 13.1 (33.9) L/h
CL/F, mean (SD) [2, 11]: 13.8 (4.6) L/h
half-life ([2]; human, plasma, oral, 90 mg): 26.5 h
Tmax ([2]; human, plasma, po, 90 mg): 2 h
half-life ([2]; human, plasma, po, 90 mg): 26.7 h
AUC [2, 12]: 6490 ng·h/mL
AUC [2, 13]: 6840 ng·h/mL
AUC ([2]; human, plasma, po, 90 mg, AUC0‐inf, geometric mean (% CV), single 90 mg oral brigatinib alone (reference), n = 19): 6880 ng·h/mL
AUC ([2]; human, plasma, po, 90 mg, AUC0‐inf, mean (SD), single 90 mg oral brigatinib alone (reference), n = 19): 7230 ng·h/mL
Cmax [2, 14]: 348 ng/mL
AUC ([2]; human, plasma, po, AUC0‐120, geometric mean (% CV), single 90 mg oral brigatinib + gemfibrozil 600 mg BID (test), n = 19): 5340 ng·h/mL
AUC ([2]; human, plasma, po, AUC0‐120, mean (SD), single 90 mg oral brigatinib + gemfibrozil 600 mg BID (test), n = 19): 5520 ng·h/mL
AUC ([2]; human, plasma, po, AUC0‐inf, geometric mean (% CV), single 90 mg oral brigatinib + gemfibrozil 600 mg BID (test), n = 19): 5740 ng·h/mL
AUC ([2]; human, plasma, po, AUC0‐inf, mean (SD), single 90 mg oral brigatinib + gemfibrozil 600 mg BID (test), n = 19): 5910 ng·h/mL
Cmax ([2]; human, plasma, po, geometric mean (% CV), single 90 mg oral brigatinib + gemfibrozil 600 mg BID (test), n = 19): 199 ng/mL
Cmax ([2]; human, plasma, po, mean (SD), single 90 mg oral brigatinib + gemfibrozil 600 mg BID (test), n = 19): 210 ng/mL
CL/F, geometric LS mean ratio (90%CI) (test vs reference) [3, 15]: 0.50 (0.45‐0.54)
Cmax, geometric LS mean ratio (90%CI) (test vs reference) [3, 15]: 1.21 (1.13‐1.30)
increase of geometric mean AUC0‐120 [3, 16]: 82%
increase of geometric mean AUC0‐inf [3, 16]: 101%
increase of geometric mean Cmax [3, 16]: 21%
prolongation in the geometric mean t½ [3, 16]: ~50%
increase of systemic exposure ([3]; by itraconazole): 2 fold
CL/F, geometric mean (% CV) [3, 17]: 6.67 (35.6) L/h
CL/F, mean (SD) [3, 17]: 7.05 (2.54) L/h
CL/F, geometric mean (% CV) [3, 18]: 14.0 (28.7) L/h
CL/F, mean (SD) [3, 18]: 14.46 (3.84) L/h
Tmax ([3]; human, plasma, po, 90 mg): 2.8 h
half-life ([3]; human, plasma, po, 90 mg): 30.5 h
AUC [3, 12]: 6140 ng·h/mL
AUC [3, 13]: 6380 ng·h/mL
AUC ([3]; human, plasma, po, 90 mg, AUC0‐inf, geometric mean (% CV), single 90 mg oral brigatinib alone (reference), n = 20): 6450 ng·h/mL
AUC ([3]; human, plasma, po, 90 mg, AUC0‐inf, mean (SD), single 90 mg oral brigatinib alone (reference), n = 20): 6710 ng·h/mL
Cmax [3, 14]: 331 ng/mL
Cmax ([3]; human, plasma, po, geometric mean (% CV), single 90 mg oral brigatinib + itraconazole 200 mg BID (test), n = 20): 401 ng/mL
Cmax ([3]; human, plasma, po, mean (SD), single 90 mg oral brigatinib + itraconazole 200 mg BID (test), n = 20): 429 ng/mL
AUC0‐120, geometric LS mean ratio (90%CI) (test vs reference) [4, 19]: 0.20 (0.19‐0.22)
CL/F, geometric LS mean ratio (90%CI) (test vs reference) [4, 19]: 5.11 (4.73‐5.51)
decrease of geometric mean Cmax [4, 20]: 60%
reduction of geometric mean AUC0‐inf [4, 20]: 80%
CL/F, geometric mean (% CV) [4, 21]: 59.2 (25.8) L/h
CL/F, mean (SD) [4, 21]: 61.0 (15.4) L/h
tmax, median (range) [4, 21]: 2.0 (1.0‐4.0) h
CL/F, geometric mean (% CV) [4, 22]: 11.5 (34.4) L/h
CL/F, mean (SD) [4, 22]: 12.2 (4.3) L/h
half-life ([4]; oral, 180 mg, geometric mean t½, brigatinib 180 mg in the presence of rifampin): 23.4 h
Cmax ([4]; po, 180 mg, geometric mean (% CV), healthy subjects, single 180 mg oral brigatinib alone (reference), n = 20): 826 ng/mL
AUC ([4]; po, AUC0‐120, geometric mean (% CV), healthy subjects, single 180 mg oral brigatinib + rifampin 600 mg QD (test), n = 19): 3020 ng·h/mL
AUC ([4]; po, AUC0‐120, mean (SD), healthy subjects, single 180 mg oral brigatinib + rifampin 600 mg QD (test), n = 19): 3110 ng·h/mL
AUC ([4]; po, AUC0‐inf, geometric mean (% CV), healthy subjects, single 180 mg oral brigatinib + rifampin 600 mg QD (test), n = 19): 3040 ng·h/mL
AUC ([4]; po, AUC0‐inf, mean (SD), healthy subjects, single 180 mg oral brigatinib + rifampin 600 mg QD (test), n = 19): 3140 ng·h/mL
Cmax ([4]; po, geometric mean (% CV), healthy subjects, single 180 mg oral brigatinib + rifampin 600 mg QD (test), n = 19): 334 ng/mL
Cmax ([4]; po, mean (SD), healthy subjects, single 180 mg oral brigatinib + rifampin 600 mg QD (test), n = 19): 347 ng/mL
half-life ([4]; po, t½, mean (SD), healthy subjects, single 180 mg oral brigatinib + rifampin 600 mg QD (test), n = 19): 23.7 h
increase in CL/F ([4]; in the presence of rifampin): approximately 5 fold
Any serious TEAE (healthy subjects; Gemfibrozil DDI arm (n = 20)): 0 n (%)
Any severe TEAE (healthy subjects; Gemfibrozil DDI arm (n = 20)): 0 n (%)
On‐study deaths (healthy subjects; Gemfibrozil DDI arm (n = 20)): 0 n (%)
Any TEAE (healthy subjects; Gemfibrozil DDI arm (n = 20), brigatinib 90 mg alone and with gemfibrozil): 9 (45) n (%)
AE leading to discontinuation (healthy subjects; Gemfibrozil DDI arm (n = 20), emesis, treatment period 2): 1 n (%)
AE leading to discontinuation (healthy subjects; Itraconazole DDI arm (n = 20)): 0 n (%)
Any serious TEAE (healthy subjects; Itraconazole DDI arm (n = 20)): 0 n (%)
Any severe TEAE (healthy subjects; Itraconazole DDI arm (n = 20)): 0 n (%)
On‐study deaths (healthy subjects; Itraconazole DDI arm (n = 20)): 0 n (%)
Any serious TEAE (healthy subjects; Rifampin DDI arm (n = 20)): 0 n (%)
Any severe TEAE (healthy subjects; Rifampin DDI arm (n = 20)): 0 n (%)
On‐study deaths (healthy subjects; Rifampin DDI arm (n = 20)): 0 n (%)
AE leading to discontinuation (healthy subjects; Rifampin DDI arm (n = 20), elevated aspartate aminotransferase and alanine aminotransferase, treatment period 2): 1 n (%)
TEAE incidence: cough (healthy subjects; [23]): 20%
TEAE incidence: throat irritation (healthy subjects; [23]): 10%
TEAE incidence: cough (healthy subjects; brigatinib coadministered with rifampin): 10%
hazard ratio, progression‐free survival ([5]; brigatinib versus crizotinib, P < .001): 0.49 [95%CI, 0.33‐0.74]
12‐month progression‐free survival ([5]; phase 3 trial, crizotinib‐naive patients with ALK‐positive NSCLC): 67%
steady‐state apparent oral clearance (CL/F) ([6]; 180 mg once daily in patients with cancer): 12.7 L/h
single‐ and repeat‐dose systemic exposures versus dose ([6]; patients with cancer, dose range 60‐240 mg once daily): increased dose‐proportionally
decrease of peak concentration (Cmax) by a high‐fat meal ([7]; compared with fasted‐state administration): 13%
median time to Cmax (tmax) ([7]; fasted state): 2 h
median time to Cmax (tmax) ([7]; high‐fat meal): 5 h
effect of a high‐fat meal on total systemic exposure [7]: no impact
administered dose recovered in feces [1]: 65%
administered dose recovered in urine [1]: 25%
share of circulating radioactive components [1]: 92%
inhibition of CYP1A2 activity (CYP1A2): did not inhibit
inhibition of CYP2B6 activity (CYP2B6): did not inhibit
inhibition of CYP2C8 activity (CYP2C8): did not inhibit
inhibition of CYP2C9 activity (CYP2C9): did not inhibit
inhibition of CYP2C19 activity (CYP2C19): did not inhibit
inhibition of CYP2D6 activity (CYP2D6): did not inhibit
inhibition of CYP3A4/5 activity (CYP3A4/5): did not inhibit
induction of CYP3A expression (CYP3A expression): induced CYP3A expression
